The text below walks through data of the NIST ThermoML archive (doi:10.1016/j.jct.2013.02.004).

± gives the expanded uncertainty stated by the source.

The series is described as follows: activity coefficient (dimensionless); of the first substance listed, at infinite dilution; xn = mol fraction of the nth substance listed. The conditions noted are these: 101 kPa, Liquid, Chromatography, x1 = 0.

Turning to `C1CCCCCCC1` [cyclooctane] + CCCCCC[n+]1ccc2ccccc2c1.N#C[S-], the activity coefficient stood at 18.8 ± 1.3 (308.15 K); 17.5 ± 1.2 (318.15 K); 16.5 ± 1.1 (328.15 K); 15.4 ± 1.1 (338.15 K); 14.5 ± 1 (348.15 K); 13.7 ± 0.9 (358.15 K). Further, the activity coefficient (368.15 K) was determined as 12.9 ± 0.9.
Regarding `C1CCCC1` [cyclopentane] + CCCCCC[n+]1ccc2ccccc2c1.N#C[S-], the activity coefficient stood at 14.7 ± 1 (308.15 K); 13.4 ± 0.9 (318.15 K); 12.3 ± 0.8 (328.15 K); 11.5 ± 0.8 (338.15 K); 10.8 ± 0.7 (348.15 K); 10.2 ± 0.7 (358.15 K). In addition, the activity coefficient (368.15 K) came out at 9.6 ± 0.65.
In the case of `CCCCCCCCCC` [decane] + CCCCCC[n+]1ccc2ccccc2c1.N#C[S-], the activity coefficient runs as follows: (308.15 K) 105 ± 7; (318.15 K) 96.7 ± 6.6; (328.15 K) 90.4 ± 6.2; (338.15 K) 84.1 ± 5.8; (348.15 K) 78.4 ± 5.4; (358.15 K) 73.4 ± 5. Besides, under “368.15 K”, the activity coefficient was determined as 68.1 ± 4.7.
On to `CCOCC` [diethyl ether] + CCCCCC[n+]1ccc2ccccc2c1.N#C[S-], for which the activity coefficient (308.15 K) was determined as 7.48 ± 0.51; the activity coefficient (318.15 K) came out at 7.07 ± 0.48; the activity coefficient (328.15 K) came out at 6.69 ± 0.46; the activity coefficient (338.15 K) was found to be 6.34 ± 0.43; the activity coefficient (348.15 K) is 6.15 ± 0.42; the activity coefficient (358.15 K) is 5.91 ± 0.4. For the same molecule, the activity coefficient (368.15 K) came to 5.66 ± 0.39.
With `CC(C)OC(C)C` [diisopropyl ether] + CCCCCC[n+]1ccc2ccccc2c1.N#C[S-], the activity coefficient reads like this: (308.15 K) 23.7 ± 1.6; (318.15 K) 21.2 ± 1.4; (328.15 K) 20.5 ± 1.4; (338.15 K) 17.6 ± 1.2; (348.15 K) 16.5 ± 1.1; (358.15 K) 15.7 ± 1.1. Moreover, where the note is “368.15 K”, the activity coefficient amounted to 14.1 ± 1.
In the case of `CCCOCCC` [dipropyl ether] + CCCCCC[n+]1ccc2ccccc2c1.N#C[S-], the activity coefficient was found to be 15.9 ± 1.1 (308.15 K); 14.9 ± 1 (318.15 K); 14.2 ± 1 (328.15 K); 13.2 ± 0.9 (338.15 K); 12.6 ± 0.9 (348.15 K); 11.9 ± 0.8 (358.15 K). Also, under “368.15 K”, the activity coefficient was 11.3 ± 0.8.
As for `CCO` [ethanol] + CCCCCC[n+]1ccc2ccccc2c1.N#C[S-], the activity coefficient is, setting by setting: (328.15 K) 0.6 ± 0.042; (338.15 K) 0.59 ± 0.042; (348.15 K) 0.581 ± 0.041; (358.15 K) 0.574 ± 0.041; (368.15 K) 0.566 ± 0.041.
Turning to `CCc1ccccc1` [ethylbenzene] + CCCCCC[n+]1ccc2ccccc2c1.N#C[S-], the activity coefficient (328.15 K) turned out to be 3.08 ± 0.21; the activity coefficient (338.15 K) worked out at 3.07 ± 0.21; the activity coefficient (348.15 K) turned out to be 3.07 ± 0.21; the activity coefficient (358.15 K) turned out to be 3.06 ± 0.21; the activity coefficient (368.15 K) was determined as 3.05 ± 0.21.
With `CCCCCCC` [heptane] + CCCCCC[n+]1ccc2ccccc2c1.N#C[S-], the activity coefficient runs as follows: (308.15 K) 53 ± 3.6; (318.15 K) 47 ± 3.2; (328.15 K) 42.5 ± 2.9; (338.15 K) 38 ± 2.6; (348.15 K) 35.2 ± 2.4; (358.15 K) 32 ± 2.2. The activity coefficient (368.15 K) was found to be 29.1 ± 2.
`C=CCCCC` [hex-1-ene] + CCCCCC[n+]1ccc2ccccc2c1.N#C[S-]: the activity coefficient (308.15 K) stood at 20.2 ± 1.4; the activity coefficient (318.15 K) amounted to 18.2 ± 1.2; the activity coefficient (328.15 K) is 16.9 ± 1.2; the activity coefficient (338.15 K) was found to be 15.4 ± 1.1; the activity coefficient (348.15 K) was found to be 14.4 ± 1; the activity coefficient (358.15 K) amounted to 13.3 ± 0.9. The activity coefficient (368.15 K) worked out at 12.3 ± 0.8.
Turning to `CCCCCC` [hexane] + CCCCCC[n+]1ccc2ccccc2c1.N#C[S-], the activity coefficient worked out at 46.6 ± 3.2 (308.15 K); 40.5 ± 2.8 (318.15 K); 35.6 ± 2.4 (328.15 K); 31.6 ± 2.2 (338.15 K); 28.3 ± 1.9 (348.15 K); 25.4 ± 1.7 (358.15 K). In addition, for the setting “368.15 K”, the activity coefficient worked out at 23.1 ± 1.6.
Regarding `CO` [methanol] + CCCCCC[n+]1ccc2ccccc2c1.N#C[S-], the activity coefficient is, setting by setting: (328.15 K) 0.381 ± 0.033; (338.15 K) 0.378 ± 0.033; (348.15 K) 0.375 ± 0.033; (358.15 K) 0.376 ± 0.033; (368.15 K) 0.37 ± 0.033.
With `CC1CCCCC1` [methylcyclohexane] + CCCCCC[n+]1ccc2ccccc2c1.N#C[S-], the activity coefficient came to 24.2 ± 1.7 (308.15 K); 21.5 ± 1.5 (318.15 K); 19.8 ± 1.4 (328.15 K); 17.7 ± 1.2 (338.15 K); 16.4 ± 1.1 (348.15 K); 15.2 ± 1 (358.15 K). Besides, the activity coefficient (368.15 K) was 14 ± 1.
`CCCCCCCCC` [nonane] + CCCCCC[n+]1ccc2ccccc2c1.N#C[S-]: the activity coefficient runs as follows: (308.15 K) 79.7 ± 5.5; (318.15 K) 73.2 ± 5; (328.15 K) 68.2 ± 4.7; (338.15 K) 62.5 ± 4.3; (348.15 K) 59 ± 4; (358.15 K) 54.5 ± 3.7. For the same molecule, the activity coefficient (368.15 K) is 51.3 ± 3.5.
As to `C=CCCCCCC` [oct-1-ene] + CCCCCC[n+]1ccc2ccccc2c1.N#C[S-], the activity coefficient by setting is: (308.15 K) 30.2 ± 2.1; (318.15 K) 28.5 ± 1.9; (328.15 K) 27.1 ± 1.9; (338.15 K) 25.6 ± 1.8; (348.15 K) 24.4 ± 1.7; (358.15 K) 23.2 ± 1.6. For the same molecule, where the note is “368.15 K”, the activity coefficient turned out to be 22.2 ± 1.5.
Take `CCCCCCCC` [octane] + CCCCCC[n+]1ccc2ccccc2c1.N#C[S-]: the activity coefficient turned out to be 64.1 ± 4.4 (308.15 K); 58 ± 4 (318.15 K); 53.3 ± 3.7 (328.15 K); 48.3 ± 3.3 (338.15 K); 45.7 ± 3.1 (348.15 K); 42.1 ± 2.9 (358.15 K). The activity coefficient (368.15 K) came out at 38.6 ± 2.6.
As for `CCCC(C)=O` [pentan-2-one] + CCCCCC[n+]1ccc2ccccc2c1.N#C[S-], the activity coefficient (328.15 K) was found to be 2.1 ± 0.14; the activity coefficient (338.15 K) came out at 2.11 ± 0.14; the activity coefficient (348.15 K) was 2.12 ± 0.14; the activity coefficient (358.15 K) was determined as 2.12 ± 0.14; the activity coefficient (368.15 K) came to 2.13 ± 0.14.
With `CCC(=O)CC` [pentan-3-one] + CCCCCC[n+]1ccc2ccccc2c1.N#C[S-], the activity coefficient reads like this: (328.15 K) 2.1 ± 0.14; (338.15 K) 2.11 ± 0.14; (348.15 K) 2.13 ± 0.14; (358.15 K) 2.15 ± 0.15; (368.15 K) 2.15 ± 0.15.
With `CCCO` [propan-1-ol] + CCCCCC[n+]1ccc2ccccc2c1.N#C[S-], the activity coefficient was 0.693 ± 0.047 (328.15 K); 0.681 ± 0.046 (338.15 K); 0.671 ± 0.045 (348.15 K); 0.664 ± 0.045 (358.15 K); 0.653 ± 0.045 (368.15 K).
Regarding `c1ccncc1` [pyridine] + CCCCCC[n+]1ccc2ccccc2c1.N#C[S-], the activity coefficient (328.15 K) is 0.703 ± 0.047; the activity coefficient (338.15 K) amounted to 0.713 ± 0.048; the activity coefficient (348.15 K) came to 0.722 ± 0.048; the activity coefficient (358.15 K) worked out at 0.729 ± 0.048; the activity coefficient (368.15 K) was determined as 0.745 ± 0.049.
